# According to US9802962B2, “Tricyclic pyrone compounds reduce amyloid beta aggregates” (priority 2013, dated 2017):
# Assays:
# [1] = Plasma and brain concentrations after i.v. administration in mice; assay type: in vivo
# Procedure: FIGS. 3A-3B. FIG. 3A. CP2 and TP70 plasma and brain concentrations following i.v. injection in mice (n=3). FIG. 3B. […] The drug concentration was determined using HPLC and mass spectrometry.
# HPLC/mass spectrometry were employed to quantify CP2 and TP70 in the plasma and brain after i.v. administration in mice. The CP2 concentration was 200-300 μM in the mouse brain between 0.5 and 2 h following 25 mg/kg i.v. administration (FIG. 3A). Similarly, TP70 concentration reached 190 μM in plasma at 5 min and 160 μM in brain at 2 h following 25 mg/Kg i.v. administration (FIGS. 3A and 3B).
# 5×FAD mice [2] = details: reported in Hong, et al., J Neurochem, 2009; cited from earlier work
# [3] = log P by octanol/water partition; assay type: physicochemical
# [4] = system: ABCA1 cholesterol transporter gene; assay: Increase of ABCA1 cholesterol transporter gene; assay type: cell-based
# Description: (§1) It has been reported that an induction of cholesterol efflux resulting in a reduction of Aβ formation/deposition in vitro and in vivo (Kim, et al., J Alzheimers Dis, 2009, 16:121-131). For additional Detail, see the attached manuscript entitled, “Inhibition of Acyl-CoA: Cholesterol Acyltransferase (ACAT), Overexpression of Cholesterol Transporter Gene, and Protection of Amyloid β (Aβ) Oligomers-Induced Neuronal Cell Death by Tricylic Pyrone Molecules” which is incorporated herein.
# MC65 neuroblastoma cells = assay: MC65 protection assay; assay type: cell-based; details: protection of MC65 cells from death caused by intracellular Aβ; for EC50: read-out: effective concentrations for 50% cell survival (EC50)
# Procedure: Employing medium-throughput cell-based MC65 protection assay to screen over one hundred TP compounds, seven TP compounds that protect MC65 neuroblastoma cells from death caused by intracellular Aβ have been identified. […] The EC50 values for CP2, TP70, and TP101 are 120, 80, and 70 nM, respectively.
# 5×FAD mice [5] = assay: In vivo efficacy in 5×FAD mice; details: 5×FAD mice
# Procedure: FIGS. 6A-6E. 2-month-old 5×FAD mice were treated with TP70 or vehicle for 6 weeks as described in the text. Four cortical sections evenly distributed through the cerebrum were taken from one hemisphere of each mouse (6 mice in each treatment group) and fluorescently stained with the amyloid dye FSB (blue) and the nuclear dye propidium iodide (PI, red). A: Representative sections that show the PI stain. B: Representative sections that only show the FSB stain. C: Fluorescent staining was objectively quantified by LSC. […] E: A representative Western blot containing the soluble fractions of three mice of each group was analyzed for soluble Aβ dimer (see ref 59 for the method).
# Although the mechanism of neuron loss in Alzheimer's disease (AD) remains elusive, it is associated with cerebral accumulation of Aβ42. The 5×FAD mouse model of amyloid deposition expresses five familial AD (FAD) mutations that are additive in driving Aβ42 overproduction.
# ACAT = ACAT inhibition; assay type: biochemical; details: read-out: half maximal inhibitory concentration (IC50), ACAT
# Description: as §1
smiles,measurement,setting,value
Cc1cc2c(c(=O)o1)C=C1CC[C@H](C(C)Cn3cnc(N)c4ncnc3-4)C[C@@H]1O2 (some centres unmarked) [CP2],CNS penetration,"[1]; i.v., mice",good CNS penetration
same,brain concentration,"[1]; mouse brain, between 0.5 and 2 h, 25 mg/kg i.v.",200 to 300 µM
same,soluble and insoluble Aβ aggregates in vivo,5×FAD mice [2],reduce soluble and insoluble Aβ aggregates in vivo
same,log P,[3],2.20
same,EC50,[4],900 nM
same,EC50,MC65 neuroblastoma cells,120 nM
same,cerebral amyloid load,5×FAD mice [5],substantially reduce
same,drug toxicity during the course of treatment,5×FAD mice [5],no apparent drug toxicity
same,"histopathology, hematological counts, and blood chemistry at necropsy",5×FAD mice [5],No abnormalities
same,levels of toxic Aβ dimers,5×FAD mice [5],substantially reduce
same,IC50,ACAT,1200 nM
CC(=O)OCCc1cc2c(c(=O)o1)C=C1CC[C@H](C(C)Cn3cnc(N)c4ncnc3-4)C[C@@H]1O2 (some centres unmarked) [TP4],EC50 values (in words),MC65 neuroblastoma cells,nanomolar range
Cc1cc2c(c(=O)o1)C=C1CCC(C(C)CNCc3c[nH]cn3)CC1O2 (centres unmarked) [TP36],EC50 values (in words),MC65 neuroblastoma cells,nanomolar range
Cc1cc2c(c(=O)o1)C=C1CCC(C(C)CNCc3ccc(O)c4ccccc34)CC1O2 (centres unmarked) [TP54],EC50 values (in words),MC65 neuroblastoma cells,nanomolar range
Cc1cc2c(c(=O)o1)C=C1CCC(C(C)CNCc3ccc(CO)cc3)CC1O2 (centres unmarked) [TP82],EC50 values (in words),MC65 neuroblastoma cells,nanomolar range
Cc1cc2c(c(=O)o1)C=C1CCC(C(C)CNCc3ccc(O)c(F)c3)CC1O2 (centres unmarked) [TP101],EC50 values (in words),MC65 neuroblastoma cells,nanomolar range
same,EC50,MC65 neuroblastoma cells,70 nM
